Like-named read-outs stand apart in the source and are kept apart here. Where a SMILES comes first, the peptide text is derived from it. The star is where a group is joined. NHC(CH2O-Palmitoyl)3 = CCCCCCCCCCCCCCCC(=O)OCC(COC(=O)CCCCCCCCCCCCCCC)(COC(=O)CCCCCCCCCCCCCCC)N*; X1 = CCCCCCCCCCCCCCCC(=O)OCC(CO)(CO)N*
Key:
CHO cells [1] = test: Proportion of cells transfected (β-gal staining), CHO; assay type: cell-based, Chinese Hamster
Description: (§1) Cell lines Cos 1 or CHO were transfected with 0.5 μg of pSVLCAT or 2 μg of pPGKlacZ plasmid using a range of concentrations of each transfection compound. The optimal concentration of compound, that is the concentration giving the highest level of CAT at 48 hours or the greatest percentage of lac z (β-galactosidase) staining cells at 24 hours was used to collate data for Table 1. As all compounds were not tested in a single experiment, absolute figures indicating transfection were not used. Rather, symbols are used to indicate the transfection efficiency relative to Lipofectamine (BRL), which was included as a control in all experiments. Table 1 thus indicates the relative efficiencies of a number of compounds in mediating the transfection of at least one cell type.
These conjugates were used to transfect CHO and Cos 1 cells with pPGKlacZNLS for estimation of the proportion of cells transfected. The transfection conditions used were as described above for the CAT experiments with cells being grown in 35 mm dishes for transfection. Cells were seeded the day prior to transfection at a density of 3.4×10^5 /dish (Cos 1) or 6.8×10^4 /dish (CHO). […] Random fields of cells were examined under the light microscope and the proportion of blue (β-GAL expressing) cells was determined. […]

CHO cells [2] = test: Transfection of pSVLCAT, CAT assay, CHO; assay type: cell-based, Chinese Hamster; conditions: for Transfection (CAT): Table 1, CHO, optimised level of agent
Description: Protocol was the same for Verafectin and Transfectam (see above) with the exception that 0.5 μg of pSVLCAT DNA was used /60 mm dish.
Lipofectamine protocol was according to manufacturer's instructions. 0.5 μg pSVLCAT/60 mm dish. CHO cells seeded 1×10^5 /60 mm dish and adhered overnight in DME/Hams medium with 10% FCS.
Transfectam 5 or 10 μl 1mg/400 μl stock solution.
Lipofectamine 5 or 10 μl 2 mg/ml (mixed formulation 3:1 with DOPE). VerafectinA3 (K3ATP3) and VerafectinG2 (K3G[Glycine]TP2) each at 5, 10 and 15 μl of 2 mM (2.8 and 2.3 mg/ml respectively) stock.
The serum free incubation period in the presence of test agents and DNA was 6 hours, then 1 ml DME/Hams+10% FCS was added. At 24 hrs the medium was changed to 2 ml of fresh DME/Hams+10% FCS until harvest at 48 hrs.
as §1
All test lipopeptide reagents were originally dissolved at 10 mM in 75% DMSO, and subsequently diluted with water to make a 2 mM stock stored at 4° C. Volumes of 2 mM stock lipopeptide ranging from 2 μl to 15 μl were diluted in 500 μl of DDME. 1 μg of plasmid pSVLCAT was separately diluted in 500 μl of DDME. Solutions were combined for 10-20 min at room temperature before adding to 500 μl of DDME in 60 mm dishes of subconfluent CHO cells (2×10^5 day-1) or Cos 1 cells (5×10^5 day-1); washed free of serum with DDME.
Cells were incubated for 6 hrs under standard conditions of 37° C. and 5% CO2 for 6 hours. 1.5 ml of DME/Hams+10% FCS (CHO) or DME+10% FCS (Cos 1) was added to the cells for overnight incubation. Fresh DME/Hams+10% FCS or DME+10% FCS was used to replace the medium for a further 24 hours prior to harvest. Cell lysates were prepared and assayed for CAT activity as described above. For Cos 1 cells, culture supernatants were assayed for CAT activity.
a. Using the standard transfection procedure described above, and 1 μg plasmid pSVLCAT, these formulations were tested on CHO cells at a single concentration equivalent to 10 μl of Verafectin A2 (2 mM) per sample and compared to unformulated compound and Lipofectamine in the same cell type. CAT production was assayed 48 hours after transfection.

Cos 1 cells [3] = assay type: cell-based, African Green Monkey
From the text: (§2) Relative levels of cytotoxicity caused by the different agents were compared during the experiment using the dye "Alamar Blue" (Alamar, Sacramento Calif.).
(§3) For experiment "c", a plasmid pPGKlaczNLS encoding β-galactosidase under the control of the mouse PGK promoter (kind gift from G.Hannan) or pSVGAL which utilises the SV40 early promoter (Sleigh, M. J. and Lockett, T. J. (1985). EMBO J. 4:3831-3837),was transfected. This experiment and assay were modified from Feigner et al J. Biol Chem. 269(4) 2550-2561 1994. This protocol allows the simultaneous assessment of 72 different combinations and concentrations of DNA and test agent in a microtitre tray. […] Cytotoxicity was assessed using alamar blue, and a sample graph is shown for experiment a.
The ratio of [lipid]/[DNA] at which that maximum was achieved is shown. Experiments shown were carried out in Cos 1 cells, as described above. MTS OD is a measure of relative viabilility of the cells exposed to the different agents, a higher value indicates greater cell viability. * These points were taken from a separate experiment and some slight variation between absolute numbers should be expected between experiments.
(§4) The ratio of [lipid]/[DNA] at which that maximum was achieved is shown in brackets for the two different cell types in the following order; (Cos 1) (CHO). Experiments shown were carried out in Cos 1 cells, as described above. Viability was measured with the dye alamar blue . # Denotes compounds tested in a separate experiment. * Viability in this experiment was determined with MTS. OD is a measure of relative viability of the cells exposed to the different agents, and as with alamar blue, a higher value indicates greater cell viability.

CHO cells [4] = test: β-gal microtitre plate transfection assay, CHO; assay type: cell-based, Chinese Hamster; conditions: Table 3, CHO, highest reading of 72 conditions
From the text: as §3
Each of these compounds was tested for transfection ability and cytotoxicity on standard cell lines using standard conditions as described above.
as §4

Hela cells = test: β-gal plate transfection assay, Hela; assay type: cell-based, Human; conditions: 48 hours
Description: Hela cells were seeded in place of Cosl or CHO cells in DME+10% FCS at a density of 2×10^4 /well and transfected with pPGKlaczNLS as described above. At 48 hours, toxicity was determined by alamar blue and the cells processed for the β-gal assay.

Cos 1 cells [5] = test: β-gal microtitre plate transfection assay, Cos 1; assay type: cell-based, African Green Monkey; conditions: for β-gal (Cos 1): Table 3, Cos 1, highest reading of 72 conditions
Method in brief: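 Cos 1 cells were transfected with β-galactosidase plasmids (mouse PGK or SV40 early promoter) across varied lipid/DNA ratios in microtitre format. The lipid/DNA ratio giving maximal expression was recorded. Viability was measured with alamar blue or MTS, where higher OD means greater viability.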

CHO cells [6] = assay type: cell-based, Chinese Hamster
Description: (LEGEND--FIGS. 7, 8 and 9; none; no agent used with plasmid DNA, rb/blank; reagent blank, number following description of compound indicates no. μl of 2 mM stock (diluted with water). 7b: 100% cell survival was taken from dishes which were "mock transfected" with no DNA or transfection agent. 0% viability was assayed in the absence of cells. Viability was assessed using the dye alamar blue.)
as §2, §4

mammalian cells = test: Transfection efficiency, general conclusions over cell lines; assay type: cell-based; conditions: other experiments (not shown)
Description: as §1
The compounds of the generic formula described on page 3 were addressed as consisting of the described basic building blocks: "x, y, R1-R4". These components were systematically varied to assess the optimal building blocks for transfection of standard cell lines in a standard assay system. Results will be presented by the use of example experiments, and shown as the levels of reporter gene expression achieved under standard conditions by either overall levels (CAT or β-galactosidase expression) or as % cells transfected (β-galactosidase--blue cells). Representative levels of cytotoxicity will also be described. […]

Cos 1 cells [7] = test: Transfection of pSVLCAT, CAT assay, Cos 1; assay type: cell-based, African Green Monkey; conditions: for Transfection (CAT): Table 1, Cos 1, optimised level of agent
Cos 1 cells [8] = assay type: cell-based, African Green Monkey; remark: listed apart in the source
Method in brief: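 Relative viability of Cos 1 cells exposed to lipid/DNA agents was read as MTS optical density; higher OD means greater viability. Some points came from separate experiments.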

Cos 1 cells [9] = test: Proportion of cells transfected (β-gal staining), Cos 1; assay type: cell-based, African Green Monkey; conditions: Table 1, Cos 1, % of cells
Description: as §1
These conjugates were used to transfect CHO and Cos 1 cells with pPGKlacZNLS for estimation of the proportion of cells transfected. The transfection conditions used were as described above for the CAT experiments with cells being grown in 35 mm dishes for transfection. Cells were seeded the day prior to transfection at a density of 3.4×10^5 /dish (Cos 1) or 6.8×10^4 /dish (CHO). […] Random fields of cells were examined under the light microscope and the proportion of blue (β-GAL expressing) cells was determined.

Question: For CCCCCCCCCCCCCCCC(=O)OCC(COC(=O)CCCCCCCCCCCCCCC)(COC(=O)CCCCCCCCCCCCCCC)NC(=O)[C@H](C)N [K0ATP3], which “transfection (β-gal assay)” value (CHO cells [1]; CHO cells) is on record?
Answer: low levels of transfection

Question: And the CAT transfection (CHO cells [2]; "x" peptide experiment a, CHO)?
Answer: no measurable transfection

Question: Which results are given for CCCCCCCCCC(=O)OCC(COC(=O)CCCCCCCCC)(COC(=O)CCCCCCCCC)NC(=O)[C@H](C)NC(=O)[C@H](CCCCN)NC(=O)[C@H](CCCCN)NC(=O)[C@@H](N)CCCCN [K3ATC3]?
Answer: Viability (Cos 1) (Cos 1 cells [3]): 0.104; β-gal (CHO) (CHO cells [4]): 5.27 × 10^-6; transfection ability, chain length C10 to C16 (Hela cells): transfection ability was seriously curtailed; ratio [lipid]/[DNA] at which maximum was achieved (Cos 1 cells [5]; Table 3, Cos 1): 2.77; β-gal (Cos 1) (Cos 1 cells [5]): 9.08 × 10^-6; Viability (CHO) (CHO cells [6]): 0.052

Question: What does the source list for CCCCCCCCCCCCCCCC(=O)OCC(CO)(CO)NC(=O)[C@H](C)NC(=O)[C@H](CCCCN)NC(=O)[C@H](CCCCN)NC(=O)[C@@H](N)CCCCN [K3ATP1, trilysine alanine tris monopalmitate] (H-KKKA-X1)?
Answer: activity relative to tripalmitate K3 molecules (mammalian cells): 30%; Transfection (CAT) (CHO cells [2]): +; ratio [lipid]/[DNA] at which maximum was achieved (Cos 1 cells [5]; Table 2, Cos 1): 5.55; units β-gal (Cos 1 cells [5]; Table 2, Cos 1, highest reading of 72 conditions): 9.32 × 10^-6 units; ratio [lipid]/[DNA] at which maximum was achieved (Cos 1 cells [5]; Table 3, Cos 1): 5.55; β-gal (Cos 1) (Cos 1 cells [5]): 9.32 × 10^-6; Transfection (CAT) (Cos 1 cells [7]): +; MTS OD490-655 (Cos 1 cells [8]): 1.34; Viability (Cos 1) (Cos 1 cells [8]): 1.34

Question: For CCCCCCCCCCCCCCCC(=O)OCC(CO)(COC(=O)CCCCCCCCCCCCCCC)NC(=O)CNC(=O)[C@H](CCCCN)NC(=O)[C@H](CCCCN)NC(=O)[C@@H](N)CCCCN [K3GTP2], which “Transfection (βGal)” value (CHO cells [1]; Table 1, CHO, % of cells) is on record?
Answer: < 1%

Question: And the “CAT levels relative to Lipofectamine” value (CHO cells [2]; Experiment 3, CHO, 5 μl)?
Answer: ~22%

Question: And the “CAT levels relative to Transfectam” value (CHO cells [2]; Experiment 3, CHO, 5 μl)?
Answer: approximately 64%

Question: And the “Transfection (CAT)” value (CHO cells [2])?
Answer: +++

Question: And the “transfection level relative to Lipofectamine” value (Cos 1 cells [7]; Experiment 4, Cos 1, 48 hours)?
Answer: ~30%

Question: What about the “effect of equimolar DOPE on transfection efficiency” value (Cos 1 cells [7]; Experiment 4, Cos 1, compared to VerafectinG2 alone) of the same molecule?
Answer: approximate doubling of transfection efficiency

Question: What about the “transfection level with equimolar DOPE relative to Lipofectamine” value (Cos 1 cells [7]; Experiment 4, Cos 1, plus equimolar unformulated DOPE) of the same molecule?
Answer: approximately 60%

Question: And the “Transfection (CAT)” value (Cos 1 cells [7])?
Answer: ++

Question: CCCCCCCCCCCCCCCC(=O)OCC(COC(=O)CCCCCCCCCCCCCCC)(COC(=O)CCCCCCCCCCCCCCC)NC(=O)[C@H](C)NC(=O)[C@H](CCCCN)NC(=O)[C@H](CCCCN)NC(=O)[C@H](CCCCN)NC(=O)[C@@H](N)CCCCN [K4ATP3] (H-KKKKA-{NHC(CH2O-Palmitoyl)3}) was tested. Which “Transfection (βGal)” value (Cos 1 cells [9]) did it give?
Answer: < 1%

Question: And the “mean level of CAT activity” value (CHO cells [2]; "x" peptide experiment c, CHO, 2 hours incubation of 20 μl lysate)?
Answer: 1071

Question: What about the “transfection, one to three palmitates, tetra lysine alanine” value (Cos 1 cells [7]; R1-R4 experiment g, Cos 1) of the same molecule?
Answer: more effective than the di or monopalmitate

Question: What about the “Transfection (CAT)” value (Cos 1 cells [7]) of the same molecule?
Answer: +(+)
